In PMC4376002 (Frontiers in Bioengineering and Biotechnology, 2015):
In brackets after ≈: the same amount, converted by molar mass.

Assays:
[1] = tested on: THP-1 cells
[2] = target: human FKBP12 (Homo sapiens, UniProt P62942); assay: biochemical
[3] = tested on: L. pneumophila Corby (WT); assay: microbe, parasite or virus in culture; format: cell-based, Legionella pneumophila; conditions: for MIC: Legionella pneumophila, 48 h, read-out: WT MIC, growth in YEB, 10 to 100 μM, 37°C, 2 days; for influence on the viability of wild type L. pneumophila: liquic culture
[4] = target: Mip of L. pneumophila (Legionella pneumophila subsp. pneumophila, UniProt Q5ZXE0); assay: biochemical; format: biochemical
Sequence of Mip of L. pneumophila (Q5ZXE0 21-233 limits assumed): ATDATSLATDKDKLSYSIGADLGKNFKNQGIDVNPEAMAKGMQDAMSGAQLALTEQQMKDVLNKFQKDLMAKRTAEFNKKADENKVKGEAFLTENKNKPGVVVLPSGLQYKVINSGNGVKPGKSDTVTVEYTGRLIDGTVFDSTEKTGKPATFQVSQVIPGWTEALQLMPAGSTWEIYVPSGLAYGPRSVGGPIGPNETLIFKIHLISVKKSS

[5] = tested on: L. pneumophila Corby in differentiated THP-1 macrophages; format: cell-based, Legionella pneumophila; conditions: compound added 2 h post infection, cfu/ml 24 h post infection; for concentration at which suppression of bacterial replication in THP-1 cells starts: 12.5 to 100 μM tested; for effect on bacterial replication in THP-1 cells: up to 100 μM
[6] = tested on: Mip-like protein of Burkholderia pseudomallei (BpML1); conditions: ref Norville et al., 2011; read-out: IC50-value toward BpML1; cited from earlier work
[7] = tested on: Staphylococcus aureus; format: cell-based
[8] = tested on: Pseudomonas aeruginosa PA01; format: cell-based
[9] = tested on: Klebsiella aerogenes; format: cell-based
[10] = tested on: Escherichia coli K12; format: cell-based
[11] = tested on: Salmonella enterica subsp. Enterica; format: cell-based
[12] = tested on: Yersinia pseudotuberculosis; format: cell-based; conditions: LB medium, data not shown
[13] = growth in YEB, 10 to 100 μM, 37°C, 2 days

Sequence of human FKBP12 (P62942 whole entry): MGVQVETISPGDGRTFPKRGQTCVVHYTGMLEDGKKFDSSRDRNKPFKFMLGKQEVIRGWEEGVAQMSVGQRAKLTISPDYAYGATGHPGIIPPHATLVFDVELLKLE

Compound | IC50 [2] [µM] | MIC [3] [µM] | IC50 [4] [µM] | WT Inhibition [3, 13] | influence on the viability of wild type L. pneumophila ([3]; 10 to 100 μM) | further results
CCC12CC3CC(C1)CC(NC(=O)CN1C(=O)CC(C[C@@H](O)C4C[C@@H](C)C[C@H](C)C4=O)CC1=O)(C3)C2 (some centres unmarked) [MT_30.51] | 0.19 ± 0.06 | ≥ 30 | 5.6 ± 1.1 |  |  | cytotoxicity to THP-1 cells [1]: without having cytotoxic side effects; IC50-value for Mip relative to FKBP12 (fold higher; FKBP12 inhibited x-fold better) [4]: about 25 fold; concentration at which suppression of bacterial replication in THP-1 cells starts [5]: 50 µM; effect on bacterial replication in THP-1 cells [5]: effectively suppressed bacterial replication
C[C@@H]1CC([C@H](O)CC2CC(=O)N(CC(=O)N(C)C(C)(C)C)C(=O)C2)C(=O)[C@@H](C)C1 (some centres unmarked) [MT_30.9] | 36.1 ± 4.1 | 30 (≈ 12.3 µg/mL) | 31.7 ± 7.4 |  |  | fold less effective than MT_30.32 in the protease coupled PPIase-assay [4]: about 18 fold; effect on bacterial replication in THP-1 cells [5]: no effect
C[C@@H]1CC([C@H](O)CC2CC(=O)N(CC(=O)NC34CC5CC(CC(C5)C3)C4)C(=O)C2)C(=O)[C@@H](C)C1 (some centres unmarked) [MT_30.8] | 0.4 ± 0.04 |  | 8.5 ± 2.1 | - (no inhibition of growth at the highest tested concentration of 100 μM) | no influence | 
C[C@@H]1CC([C@H](O)CC2CC(=O)N(CC(=O)NC34CC5CC(CC(C5)C3)C4)C(=O)C2)[C@H](O)[C@@H](C)C1 (some centres unmarked) [MT_30.92] | 1 ± 0.1 | ≥ 30 | 12.6 ± 1.4 |  |  | 
C[C@@H]1CC([C@H](O)CC2CC(=O)N(CC(=O)NC(C)(C)C)C(=O)C2)C(=O)[C@@H](C)C1 (some centres unmarked) [MT_30.3] |  |  | 33.8 ± 8.6 | - (no inhibition of growth at the highest tested concentration of 100 μM) | no influence | 
CC1CC(C)C(=O)C(C(O)CC2CC(=O)N(CC(=O)NC34CC5(C)CC(C)(CC(O)(C5)C3)C4)C(=O)C2)C1 (centres unmarked) [MT_30.79] | 0.22 ± 0.02 |  | 4.9 ± 0.9 | - (no inhibition of growth at the highest tested concentration of 100 μM) | no influence | IC50-value for Mip relative to FKBP12 (fold higher; FKBP12 inhibited x-fold better) [4]: about 25 fold
CCOC(=O)CN1C(=O)CC(CC(O)C2CC(C)CC(C)C2=O)CC1=O (centres unmarked) [Cycloheximide-N-ethylethanoate] |  |  |  |  |  | IC50 [6]: 6.5 ± 1 µM
C[C@@H]1CC([C@H](O)CC2CC(=O)N(CC(=O)NC34CC5CC(CC(O)(C5)C3)C4)C(=O)C2)C(=O)[C@@H](C)C1 (some centres unmarked) [MT_30.38] | 1.2 ± 0.1 |  | 21.8 ± 3.3 | - (no inhibition of growth at the highest tested concentration of 100 μM) | no influence | 
CC1CC(C)C(=O)C(C(O)CC2CC(=O)N(CC(=O)NC34CC5CC(C)(CC(C)(C5)C3)C4)C(=O)C2)C1 (centres unmarked) [MT_30.32] | 0.18 ± 0.05 | ≥ 30 | 1.7 ± 0.2 |  |  | effect on growth of S. aureus [7]: none of the tested strains were affected in their growth; cytotoxicity to THP-1 cells [1]: without having cytotoxic side effects; effect on growth of P. aeruginosa PA01 [8]: none of the tested strains were affected in their growth; effect on growth of K. aerogenes [9]: none of the tested strains were affected in their growth; effect on growth of E. coli K12 [10]: none of the tested strains were affected in their growth; effect on growth of S. enterica subsp. enterica [11]: none of the tested strains were affected in their growth; IC50-value for Mip relative to FKBP12 (fold higher; FKBP12 inhibited x-fold better) [4]: 10 fold; effect on growth of Y. pseudotuberculosis [12]: none of the tested strains were affected in their growth; concentration at which suppression of bacterial replication in THP-1 cells starts [5]: 50 µM; effect on bacterial replication in THP-1 cells [5]: effectively suppressed bacterial replication
C[C@@H]1CC([C@H](O)CC2CC(=O)N(CC(=O)NC34CC5CC(CC(C5)C3)C4)C(=O)C2)[C@@H](O)[C@@H](C)C1 (some centres unmarked) [MT_30.93] | 0.9 ± 0.05 | ≥ 30 | 16.3 ± 2.6 |  |  | 
CO[C@H]1C[C@@H]2CC[C@@H](C)[C@@](O)(O2)C(=O)C(=O)N2CCCC[C@H]2C(=O)O[C@H]([C@H](C)C[C@@H]2CC[C@@H](O)[C@H](OC)C2)CC(=O)[C@H](C)/C=C(\C)[C@@H](O)[C@@H](OC)C(=O)[C@H](C)C[C@H](C)/C=C/C=C/C=C/1C [Rapamycin, reference compound] |  | ≥ 40 |  |  |  | WT MIC [3, 13]: 40 µM
